Among the data in ChEMBL document CHEMBL1152009, “Synthesis and biological activity of some 3-acryloxymethyl cephalosporins” (Bioorg Med Chem Lett, 1995) are MIC and half-life values, retold here.

Molecules are shown by their SMILES. Values after ≈ are worked out from the molar mass of the structure shown. A value given as a limit tells only on which side of the number the result lay.

In one data set the test system is Haemophilus influenzae. As to the kind of experiment: In vitro antibacterial activity against Haemophilus influenzae NEMC (resistance due to beta-lactamase). It is filed as functional.
`CC(=O)OCC1=C(C(=O)O)N2C(=O)[C@@H](NC(=O)/C(=N\O)c3cnc(N)s3)[C@H]2SC1` had an MIC of 0.06 µg/mL (≈ 0.136 µM).

As to `CC(C)=CC(=O)OCC1=C(C(=O)O)N2C(=O)[C@@H](NC(=O)/C(=N\O)c3cnc(N)s3)[C@H]2SC1`, the MIC was < 0.03 µg/mL.

The subject of the next data set is Staphylococcus aureus. As to the kind of experiment: In vitro antibacterial activity against Staphylococcus aureus V573 (resistance due to modified target enzyme). It counts as functional.
For the compound `CC(=O)OCC1=C(C(=O)O)N2C(=O)[C@@H](NC(=O)/C(=N\O)c3cnc(N)s3)[C@H]2SC1`, the MIC is > 32 µg/mL.

Compound `CC(C)=CC(=O)OCC1=C(C(=O)O)N2C(=O)[C@@H](NC(=O)/C(=N\O)c3cnc(N)s3)[C@H]2SC1` came in with an MIC of 8 µg/mL (≈ 16.6 µM).

The subject of the next data set is Streptococcus pneumoniae. In words: In vitro antibacterial activity against Streptococcus pneumoniae PU7 (resistance due to modified target enzyme). It is filed as functional.
On to `CC(C)=CC(=O)OCC1=C(C(=O)O)N2C(=O)[C@@H](NC(=O)/C(=N\O)c3cnc(N)s3)[C@H]2SC1`, for which the MIC was 0.5 µg/mL (≈ 1.04 µM).

Another data set relates to Proteus mirabilis. In words: In vitro antibacterial activity against Proteus mirabilis C977. It counts as functional.
Regarding `CC(=O)OCC1=C(C(=O)O)N2C(=O)[C@@H](NC(=O)/C(=N\O)c3cnc(N)s3)[C@H]2SC1`, the MIC is 0.06 µg/mL (≈ 0.136 µM).

Take `CC(C)=CC(=O)OCC1=C(C(=O)O)N2C(=O)[C@@H](NC(=O)/C(=N\O)c3cnc(N)s3)[C@H]2SC1`: the MIC came to 0.25 µg/mL (≈ 0.519 µM).

A further data set concerns Escherichia coli. As to the kind of experiment: In vitro antibacterial activity against Escherichia coli 10418. It counts as functional.
The compound `CC(=O)OCC1=C(C(=O)O)N2C(=O)[C@@H](NC(=O)/C(=N\O)c3cnc(N)s3)[C@H]2SC1` came in with an MIC of 0.06 µg/mL (≈ 0.136 µM).

`CC(C)=CC(=O)OCC1=C(C(=O)O)N2C(=O)[C@@H](NC(=O)/C(=N\O)c3cnc(N)s3)[C@H]2SC1` registered an MIC of 0.06 µg/mL (≈ 0.125 µM).

The subject of another data set is Enterococcus faecalis. As to the kind of experiment: In vitro antibacterial activity against S. faecalis I. It counts as functional.
Consider `CC(=O)OCC1=C(C(=O)O)N2C(=O)[C@@H](NC(=O)/C(=N\O)c3cnc(N)s3)[C@H]2SC1`, for which the MIC stood at 4 µg/mL (≈ 9.06 µM).

A further data set deals with Staphylococcus aureus. As to the kind of experiment: In vitro antibacterial activity against Staphylococcus aureus Oxford. It counts as functional.
As to `CC(=O)OCC1=C(C(=O)O)N2C(=O)[C@@H](NC(=O)/C(=N\O)c3cnc(N)s3)[C@H]2SC1`, the MIC was 0.25 µg/mL (≈ 0.566 µM).

`CC(C)=CC(=O)OCC1=C(C(=O)O)N2C(=O)[C@@H](NC(=O)/C(=N\O)c3cnc(N)s3)[C@H]2SC1` displayed an MIC of 0.25 µg/mL (≈ 0.519 µM).

Another data set relates to Streptococcus pyogenes. As to the kind of experiment: In vitro antibacterial activity against Streptococcus pyogenes CN10. It is filed as functional.
Turning to `CC(C)=CC(=O)OCC1=C(C(=O)O)N2C(=O)[C@@H](NC(=O)/C(=N\O)c3cnc(N)s3)[C@H]2SC1`, the MIC is < 0.03 µg/mL.

The subject of a further data set is Escherichia coli. In words: In vitro antibacterial activity against Escherichia coli 1077 (resistance due to beta-lactamase). It is filed as functional.
Take `CC(=O)OCC1=C(C(=O)O)N2C(=O)[C@@H](NC(=O)/C(=N\O)c3cnc(N)s3)[C@H]2SC1`: the MIC stood at 0.06 µg/mL (≈ 0.136 µM).

Compound `CC(C)=CC(=O)OCC1=C(C(=O)O)N2C(=O)[C@@H](NC(=O)/C(=N\O)c3cnc(N)s3)[C@H]2SC1` displayed an MIC of 0.25 µg/mL (≈ 0.519 µM).

The test system of the next data set is Staphylococcus aureus. As to the kind of experiment: In vitro antibacterial activity against Staphylococcus aureus Russell (resistance due to beta-lactamase. It is filed as functional.
Consider `CC(C)=CC(=O)OCC1=C(C(=O)O)N2C(=O)[C@@H](NC(=O)/C(=N\O)c3cnc(N)s3)[C@H]2SC1`, for which the MIC was found to be 0.5 µg/mL (≈ 1.04 µM).

The next data set has as its system Escherichia coli. In words: In vitro antibacterial activity against Escherichia coli JT425 (resistance due to beta-lactamase). It counts as functional.
With `CC(=O)OCC1=C(C(=O)O)N2C(=O)[C@@H](NC(=O)/C(=N\O)c3cnc(N)s3)[C@H]2SC1`, the MIC came out at 1 µg/mL (≈ 2.27 µM).

Compound `CC(C)=CC(=O)OCC1=C(C(=O)O)N2C(=O)[C@@H](NC(=O)/C(=N\O)c3cnc(N)s3)[C@H]2SC1` showed an MIC of 0.5 µg/mL (≈ 1.04 µM).

The next data set has as its system Moraxella catarrhalis. As to the kind of experiment: In vitro antibacterial activity against Branhamella catarrhalis Ravasio (resistance due to beta-lactamase). It counts as functional.
In the case of `CC(=O)OCC1=C(C(=O)O)N2C(=O)[C@@H](NC(=O)/C(=N\O)c3cnc(N)s3)[C@H]2SC1`, the MIC was found to be 2 µg/mL (≈ 4.53 µM).

The compound `CC(C)=CC(=O)OCC1=C(C(=O)O)N2C(=O)[C@@H](NC(=O)/C(=N\O)c3cnc(N)s3)[C@H]2SC1` yielded an MIC of 4 µg/mL (≈ 8.31 µM).

Another data set relates to Klebsiella pneumoniae. In words: In vitro antibacterial activity against Klebsiella pneumoniae T767. It is filed as functional.
`CC(=O)OCC1=C(C(=O)O)N2C(=O)[C@@H](NC(=O)/C(=N\O)c3cnc(N)s3)[C@H]2SC1` displayed an MIC of 0.06 µg/mL (≈ 0.136 µM).

Regarding `CC(C)=CC(=O)OCC1=C(C(=O)O)N2C(=O)[C@@H](NC(=O)/C(=N\O)c3cnc(N)s3)[C@H]2SC1`, the MIC was found to be 0.5 µg/mL (≈ 1.04 µM).

The subject of another data set is Streptococcus pneumoniae. As to the kind of experiment: In vitro antibacterial activity against Streptococcus pneumoniae 1716. It is filed as functional.
`CC(=O)OCC1=C(C(=O)O)N2C(=O)[C@@H](NC(=O)/C(=N\O)c3cnc(N)s3)[C@H]2SC1`: the MIC stood at 0.06 µg/mL (≈ 0.136 µM).

Consider `CC(C)=CC(=O)OCC1=C(C(=O)O)N2C(=O)[C@@H](NC(=O)/C(=N\O)c3cnc(N)s3)[C@H]2SC1`, for which the MIC is < 0.03 µg/mL.

A further data set deals with Haemophilus influenzae. As to the kind of experiment: In vitro antibacterial activity against Haemophilus influenzae Q1. It counts as functional.
The compound `CC(=O)OCC1=C(C(=O)O)N2C(=O)[C@@H](NC(=O)/C(=N\O)c3cnc(N)s3)[C@H]2SC1` showed an MIC of 0.12 µg/mL (≈ 0.272 µM).

Turning to `CC(C)=CC(=O)OCC1=C(C(=O)O)N2C(=O)[C@@H](NC(=O)/C(=N\O)c3cnc(N)s3)[C@H]2SC1`, the MIC was 0.06 µg/mL (≈ 0.125 µM).

Tested on in a further data set: not listed separately
In words: Half-life in a rat liver homogenate preparation. It counts as ADME.
In the case of `CC(=O)OCC1=C(C(=O)O)N2C(=O)[C@@H](NC(=O)/C(=N\O)c3cnc(N)s3)[C@H]2SC1`, the half-life is ≤ 15 min.

The test system of a further data set is Morganella morganii. As to the kind of experiment: In vitro antibacterial activity against Morganella morganii T361. It counts as functional.
`CC(=O)OCC1=C(C(=O)O)N2C(=O)[C@@H](NC(=O)/C(=N\O)c3cnc(N)s3)[C@H]2SC1` gave an MIC of 0.06 µg/mL (≈ 0.136 µM).

Consider `CC(C)=CC(=O)OCC1=C(C(=O)O)N2C(=O)[C@@H](NC(=O)/C(=N\O)c3cnc(N)s3)[C@H]2SC1`, for which the MIC was 0.25 µg/mL (≈ 0.519 µM).

In the next data set the test system is Staphylococcus aureus. In words: In vitro antibacterial activity against Staphylococcus aureus MB9. It counts as functional.
In the case of `CC(=O)OCC1=C(C(=O)O)N2C(=O)[C@@H](NC(=O)/C(=N\O)c3cnc(N)s3)[C@H]2SC1`, the MIC is 0.5 µg/mL (≈ 1.13 µM).

In turn, `CC(C)=CC(=O)OCC1=C(C(=O)O)N2C(=O)[C@@H](NC(=O)/C(=N\O)c3cnc(N)s3)[C@H]2SC1` registered an MIC of 0.5 µg/mL (≈ 1.04 µM).

In a further data set the test system is Streptococcus pneumoniae. As to the kind of experiment: In vitro antibacterial activity against Streptococcus pneumoniae PU7 (resistance due to modified target enzyme. It counts as functional.
With `CC(=O)OCC1=C(C(=O)O)N2C(=O)[C@@H](NC(=O)/C(=N\O)c3cnc(N)s3)[C@H]2SC1`, the MIC turned out to be 2 µg/mL (≈ 4.53 µM).

In the next data set the test system is Pseudomonas aeruginosa. As to the kind of experiment: In vitro antibacterial activity was determined against Pseudomonas aeruginosa 10662. It is filed as functional.
As to `CC(C)=CC(=O)OCC1=C(C(=O)O)N2C(=O)[C@@H](NC(=O)/C(=N\O)c3cnc(N)s3)[C@H]2SC1`, the MIC was > 64 µg/mL.

Another data set relates to Enterococcus faecalis. In words: In vitro antibacterial activity against Streptococcus faecalis I. It is filed as functional.
The compound `CC(C)=CC(=O)OCC1=C(C(=O)O)N2C(=O)[C@@H](NC(=O)/C(=N\O)c3cnc(N)s3)[C@H]2SC1` displayed an MIC of 8 µg/mL (≈ 16.6 µM).

A further data set has as its system Pseudomonas aeruginosa. In words: In vitro antibacterial activity against Pseudomonas aeruginosa 10662. It counts as functional.
Take `CC(=O)OCC1=C(C(=O)O)N2C(=O)[C@@H](NC(=O)/C(=N\O)c3cnc(N)s3)[C@H]2SC1`: the MIC was > 32 µg/mL.

In another data set the test system is Escherichia coli. As to the kind of experiment: In vitro antibacterial activity against Escherichia coli ESS. It counts as functional.
In the case of `CC(=O)OCC1=C(C(=O)O)N2C(=O)[C@@H](NC(=O)/C(=N\O)c3cnc(N)s3)[C@H]2SC1`, the MIC was < 0.03 µg/mL.

Regarding `CC(C)=CC(=O)OCC1=C(C(=O)O)N2C(=O)[C@@H](NC(=O)/C(=N\O)c3cnc(N)s3)[C@H]2SC1`, the MIC is < 0.03 µg/mL.

Another data set deals with Staphylococcus aureus. In words: In vitro antibacterial activity against Staphylococcus aureus Russell (resistance due to beta-lactamase). It is filed as functional.
On to `CC(=O)OCC1=C(C(=O)O)N2C(=O)[C@@H](NC(=O)/C(=N\O)c3cnc(N)s3)[C@H]2SC1`, for which the MIC stood at 0.5 µg/mL (≈ 1.13 µM).

For a further data set, the system named is Streptococcus agalactiae. In words: In vitro antibacterial activity against Streptococcus agalactiae 2798. It is filed as functional.
The compound `CC(=O)OCC1=C(C(=O)O)N2C(=O)[C@@H](NC(=O)/C(=N\O)c3cnc(N)s3)[C@H]2SC1` showed an MIC of 0.06 µg/mL (≈ 0.136 µM).

Consider `CC(C)=CC(=O)OCC1=C(C(=O)O)N2C(=O)[C@@H](NC(=O)/C(=N\O)c3cnc(N)s3)[C@H]2SC1`, for which the MIC is < 0.03 µg/mL.

In another data set the test system is Staphylococcus epidermidis. As to the kind of experiment: In vitro antibacterial activity against Staphylococcus epidermidis PHLN20. It counts as functional.
`CC(=O)OCC1=C(C(=O)O)N2C(=O)[C@@H](NC(=O)/C(=N\O)c3cnc(N)s3)[C@H]2SC1` yielded an MIC of 0.25 µg/mL (≈ 0.566 µM).

For the compound `CC(C)=CC(=O)OCC1=C(C(=O)O)N2C(=O)[C@@H](NC(=O)/C(=N\O)c3cnc(N)s3)[C@H]2SC1`, the MIC was determined as 0.25 µg/mL (≈ 0.519 µM).

Usually half-life stands for how long it takes for the measured level to halve. A higher half-life goes with slow loss.
